Data from patent US20090298857A1, “Treatment of Neurodegenerative Diseases Through Inhibition of HSP90” (SLOAN-KETTERING INSTITUTE FOR CANCER RESEARCH, priority 2006, published 2009).
Like-named read-outs stand apart in the source and are kept apart here.

Legend:
[1] = target: P-glycoprotein (Homo sapiens, UniProt P08183); conditions: known Hsp90 inhibitor, cited from earlier work
[2] = test system: p35 in primary neurons, COS-7/p35 and COS-7/p35/Tau cells; assay: p35 degradation and Tau phosphorylation in primary neurons and transfected COS-7 cells; type: cell-based, rat; conditions: compared with PU24FC1
Method: To further examine the roles played by Hsp90 in tauopathy, we made use of both PU24FC1 and 17-(allyllamino)-17-demethoxygeldanamycin (17AAG) and investigated their effects on both cdk5/p35 and TauP301L in primary neuronal and COS-7 cell cultures. Primary neuronal cultures were derived from the cerebral cortices of embryonic day 17 rat embryos and maintained as described previously (105). To determine the effects of PU24FC1 on protein steady-states and on Tau phosphorylation, PU24FC1 was added at day 6 of culture, and cells were incubated at 37° C. as indicated. […] After incubation, cells were harvested and lysed in 2% SDS, and the resulting samples were analyzed by Western blotting.
Phosphorylation of Tau by cdk5 is initiated through activation by complex formation with one of the neuron-specific proteins p35 or p39. […] In concordance, we assessed the influence of Hsp90 inhibition on p35 cellular expression. A dose- and time-dependent degradation of p35 by PU24FC1 was detected in primary neurons by immunoblot and by immunofluorescence techniques, as well as in COS-7/p35 and COS-7/p35/Tau cells. […]
We detected a dose- and time-dependent degradation of p35 by PU24FC1 in primary neurons, as well as in COS-7/p35 and COS-7/p35/Tau cells. […] Reduction of p35 levels by Hsp90 inhibition affected the activity of the cdk5/p35 complex, as measured using a substrate of cdk5, the histone-H1. […]

[3] = known Hsp90 inhibitors; cited from earlier work

P-glycoprotein, sequence (P08183 whole entry): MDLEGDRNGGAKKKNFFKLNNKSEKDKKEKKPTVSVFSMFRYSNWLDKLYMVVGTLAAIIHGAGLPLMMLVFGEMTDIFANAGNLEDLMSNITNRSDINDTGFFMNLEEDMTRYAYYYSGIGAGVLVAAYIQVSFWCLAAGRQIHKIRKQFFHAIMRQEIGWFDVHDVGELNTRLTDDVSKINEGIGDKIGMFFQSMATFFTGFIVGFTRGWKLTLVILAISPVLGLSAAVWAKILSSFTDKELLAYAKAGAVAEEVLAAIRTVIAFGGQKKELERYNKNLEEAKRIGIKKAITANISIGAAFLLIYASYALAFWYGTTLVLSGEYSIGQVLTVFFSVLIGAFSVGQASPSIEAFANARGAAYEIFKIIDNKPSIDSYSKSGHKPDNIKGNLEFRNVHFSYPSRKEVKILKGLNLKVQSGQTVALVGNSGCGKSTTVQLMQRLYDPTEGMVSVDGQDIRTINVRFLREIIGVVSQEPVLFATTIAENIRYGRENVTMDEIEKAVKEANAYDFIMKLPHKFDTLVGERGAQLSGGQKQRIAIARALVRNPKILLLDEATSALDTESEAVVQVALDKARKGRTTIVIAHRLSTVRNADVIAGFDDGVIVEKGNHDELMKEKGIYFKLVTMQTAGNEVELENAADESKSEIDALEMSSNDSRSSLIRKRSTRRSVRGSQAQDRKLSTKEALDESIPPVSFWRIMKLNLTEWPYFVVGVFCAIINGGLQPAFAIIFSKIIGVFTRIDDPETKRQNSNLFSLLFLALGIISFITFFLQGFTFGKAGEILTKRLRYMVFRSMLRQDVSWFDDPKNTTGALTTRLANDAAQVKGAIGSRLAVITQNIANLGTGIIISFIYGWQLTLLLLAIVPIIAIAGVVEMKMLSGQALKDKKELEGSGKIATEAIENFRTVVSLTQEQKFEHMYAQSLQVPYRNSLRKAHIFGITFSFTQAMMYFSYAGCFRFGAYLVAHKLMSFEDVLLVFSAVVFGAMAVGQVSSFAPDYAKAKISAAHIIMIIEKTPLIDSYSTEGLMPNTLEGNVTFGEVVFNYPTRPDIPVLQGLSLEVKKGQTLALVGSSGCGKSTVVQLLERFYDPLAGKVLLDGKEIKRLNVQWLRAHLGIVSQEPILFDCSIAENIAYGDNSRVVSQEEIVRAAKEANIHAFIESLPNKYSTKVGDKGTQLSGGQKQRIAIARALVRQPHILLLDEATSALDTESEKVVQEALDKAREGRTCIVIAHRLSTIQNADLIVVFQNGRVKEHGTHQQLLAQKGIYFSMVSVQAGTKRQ

| SMILES | P-gp substrate [1] | P-gp substrate ([1]; listed as 17-AAG) | effects on p35 and mTau [2] | solubility [3] |
| --- | --- | --- | --- | --- |
| C=CCNC1=C2C[C@@H](C)C[C@H](OC)[C@H](O)[C@@H](C)/C=C(\C)[C@H](OC(N)=O)[C@@H](OC)/C=C\C=C(/C)C(=O)NC(=CC1=O)C2=O [Compound 17AAG, 17-(allyllamino)-17-demethoxygeldanamycin] | is a P-gp substrate | is a P-glycoprotein substrate | Analogous effects | poorly soluble |
| COC1=C2C[C@@H](C)C[C@H](OC)[C@H](O)[C@@H](C)/C=C(\C)[C@H](OC(N)=O)[C@@H](OC)/C=C\C=C(/C)C(=O)NC(=CC1=O)C2=O [geldanamycin] |  |  |  | poorly soluble |
| C[C@@H]1C[C@H]2O[C@@H]2/C=C\C=C\C(=O)Cc2c(Cl)c(O)cc(O)c2C(=O)O1 [radicicol] |  |  |  | poorly soluble |
